This is an account of results in US20240300937A1, “Substituted 6-(Pyrimidin-4-yl)Quinoline Compounds as Cyclin Dependent Kinase Inhibitors” (BeiGene, Ltd., priority 2022, published 2024).

One experiment deals with CDK6/Cyclin D3 (Homo sapiens (Human), UniProt Q00534). Nature of the experiment: CDK6/Cyclin D3 kinase TR-FRET inhibition assay. The format is biochemical. Conditions: 1 mM ATP, Rb (Ser780)-biotin substrate, read-out: CDK6D3 IC50. On the procedure: (§1) Compounds disclosed herein were tested for inhibition of CDK4/Cyclin D1 or CDK6/Cyclin D3 kinase in an assay based on the time-resolved fluorescence-resonance energy transfer (TR-FRET) methodology. The assay was carried out in 384-well low volume black plates in a reaction mixture containing CDK4/Cyclin D1 or CDK6/Cyclin D3, 1 mM ATP, 0.15 μM Rb (Ser780)-biotin substrate and 0-10 μM compound in buffer containing 50 mM HEPES pH7.0, 0.02% NaN3, 0.01% BSA, 0.1 mM Orthovanadate, 50 mM MgCl2, 1 mM DTT and 0.005% Tween-20. The kinase was incubated with compound for 60 minutes at room temperature and the reaction was initiated by the addition of ATP and Rb (Ser780)-biotin substrate. After reaction at room temperature for 120 minutes, an equal volume of stop/detection solution was added according to the manufacture's instruction (Cisbio Bioassays). The stop/detection solution contained Streptavidin-XL665 and Anti-pRb (Ser780) mAb-Eu Cryptate in Detection buffer (Cisbio Bioassays). Plates were incubated at room temperature for 60 minutes, and the TR-FRET signals (ex337 nm, em665 nm/620 nm) were recorded on a PHERAstar FSX plate reader (BMG Labtech). The inhibition percentage of CDK4/Cyclin D1 or CDK6/Cyclin D3 kinase activity in presence of increasing concentrations of compounds was calculated based on the ratio of fluorescence at 665 nm to that at 620 nm. The IC50 for each compound was derived from fitting the data to the four-parameter logistic equation by Dotmatics.
(TR-FRET usually uses a lanthanide donor and a delayed reading to cut background.)

Another experiment concerns the target CDK4/Cyclin D1 (Homo sapiens (Human), UniProt P11802). Nature of the experiment: CDK4/Cyclin D1 kinase TR-FRET inhibition assay. The experiment is classed as biochemical. Conditions: 1 mM ATP, Rb (Ser780)-biotin substrate, read-out: CDK4D1 IC50. As for the experimental part:
as §1

CDK6/Cyclin D3, sequence (Q00534 whole entry): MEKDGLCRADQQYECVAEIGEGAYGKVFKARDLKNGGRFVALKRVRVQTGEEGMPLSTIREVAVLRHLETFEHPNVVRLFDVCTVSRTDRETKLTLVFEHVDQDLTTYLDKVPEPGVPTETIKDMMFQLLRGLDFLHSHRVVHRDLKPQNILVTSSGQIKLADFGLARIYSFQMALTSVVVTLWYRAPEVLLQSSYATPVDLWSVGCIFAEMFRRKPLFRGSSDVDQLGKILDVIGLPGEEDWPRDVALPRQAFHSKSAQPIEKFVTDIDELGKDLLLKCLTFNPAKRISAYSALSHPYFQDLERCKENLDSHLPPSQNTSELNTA
CDK6/Cyclin D3, sequence (P30281 whole entry partner): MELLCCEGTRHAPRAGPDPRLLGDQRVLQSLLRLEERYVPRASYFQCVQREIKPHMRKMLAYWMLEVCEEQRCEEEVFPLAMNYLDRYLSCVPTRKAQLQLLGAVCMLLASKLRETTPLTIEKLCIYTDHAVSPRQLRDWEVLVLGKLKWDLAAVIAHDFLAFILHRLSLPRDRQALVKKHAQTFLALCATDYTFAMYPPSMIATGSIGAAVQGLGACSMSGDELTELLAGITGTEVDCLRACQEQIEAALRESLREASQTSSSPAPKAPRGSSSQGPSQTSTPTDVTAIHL
CDK4/Cyclin D1, sequence (P11802 whole entry): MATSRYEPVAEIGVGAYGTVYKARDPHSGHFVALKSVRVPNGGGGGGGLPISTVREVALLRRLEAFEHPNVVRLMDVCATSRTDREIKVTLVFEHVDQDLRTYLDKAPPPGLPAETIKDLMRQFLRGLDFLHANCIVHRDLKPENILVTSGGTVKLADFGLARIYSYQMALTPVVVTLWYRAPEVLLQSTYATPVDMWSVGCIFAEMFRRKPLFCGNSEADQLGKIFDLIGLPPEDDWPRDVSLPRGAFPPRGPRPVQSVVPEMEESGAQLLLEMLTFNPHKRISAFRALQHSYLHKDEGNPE
CDK4/Cyclin D1, sequence (P24385 whole entry partner): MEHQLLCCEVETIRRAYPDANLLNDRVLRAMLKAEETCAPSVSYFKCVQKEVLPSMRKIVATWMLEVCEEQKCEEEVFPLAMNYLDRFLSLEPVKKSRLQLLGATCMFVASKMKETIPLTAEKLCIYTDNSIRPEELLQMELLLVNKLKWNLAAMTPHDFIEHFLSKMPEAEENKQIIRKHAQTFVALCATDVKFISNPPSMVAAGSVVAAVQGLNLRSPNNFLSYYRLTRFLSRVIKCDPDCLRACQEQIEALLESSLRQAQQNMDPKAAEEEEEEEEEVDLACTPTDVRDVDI

As usually defined, the IC50 is the concentration that inhibits the measured activity by half. On to `CC(C)c1c(CNC2CC2)cnc2ccc(-c3nc(N[C@@H]4CCOC[C@H]4O)ncc3F)cc12` [Example 25, (3S,4R)-4-((4-(3-((cyclopropylamino)methyl)-4-isopropylquinolin-6-yl)-5-fluoropyrimidin-2-yl)amino)tetrahydro-2H-pyran-3-ol], for which the values for the IC50 on CDK6/Cyclin D3 and at CDK4/Cyclin D1 were 224 nM and 8.3 nM, respectively.

For `CC(C)c1c(CNC2CCCC2)cnc2ccc(-c3nc(N[C@@H]4CCOC[C@H]4O)ncc3F)cc12` [Example 26, (3S,4R)-4-((4-(3-((cyclopentylamino)methyl)-4-isopropylquinolin-6-yl)-5-fluoropyrimidin-2-yl)amino)tetrahydro-2H-pyran-3-ol], the IC50 was determined as 990 nM on CDK6/Cyclin D3 and 33 nM at CDK4/Cyclin D1.

For `CC(C)c1c(CNC[C@H]2CCOC2)cnc2ccc(-c3nc(N[C@@H]4CCOC[C@H]4O)ncc3F)cc12` [Example 27, (3S,4R)-4-((5-fluoro-4-(4-isopropyl-3-(((((R)-tetrahydrofuran-3-yl)methyl)amino)methyl)quinolin-6-yl)pyrimidin-2-yl)amino)tetrahydro-2H-pyran-3-ol], the results for the IC50 at CDK6/Cyclin D3 and on CDK4/Cyclin D1 were 828 nM and 23 nM, respectively.

For the molecule `CC(C)c1c(CNC2CCCCC2)cnc2ccc(-c3nc(N[C@@H]4CCOC[C@H]4O)ncc3F)cc12` [Example 28], the IC50 at CDK6/Cyclin D3 turned out to be 703 nM; on CDK4/Cyclin D1, 19 nM.

Regarding `CC(C)c1c(CNC2CCOCC2)cnc2ccc(-c3nc(N[C@@H]4CCOC[C@H]4O)ncc3F)cc12` [Example 29, (3S,4R)-4-((5-fluoro-4-(4-isopropyl-3-(((tetrahydro-2H-pyran-4-yl)amino)methyl)quinolin-6-yl)pyrimidin-2-yl)amino)tetrahydro-2H-pyran-3-ol], the IC50 was determined as 860 nM on CDK6/Cyclin D3 and 20 nM on CDK4/Cyclin D1.

As for `CC(C)c1c(CN[C@@H]2CCCOC2)cnc2ccc(-c3nc(N[C@@H]4CCOC[C@H]4O)ncc3F)cc12` [Example 30, (3S,4R)-4-((5-fluoro-4-(4-isopropyl-3-((((R)-tetrahydro-2H-pyran-3-yl)amino)methyl)quinolin-6-yl)pyrimidin-2-yl)amino)tetrahydro-2H-pyran-3-ol], the IC50 was 550 nM at CDK6/Cyclin D3 and 11 nM on CDK4/Cyclin D1.

Consider `COCc1cnc2ccc(-c3nc(N[C@@H]4CCOC[C@H]4O)ncc3F)cc2c1C(C)C` [Example 31, (3S,4R)-4-((5-fluoro-4-(4-isopropyl-3-(methoxymethyl)quinolin-6-yl)pyrimidin-2-yl)amino)tetrahydro-2H-pyran-3-ol], for which the IC50 on CDK6/Cyclin D3 was 275 nM; at CDK4/Cyclin D1, 25 nM.

Consider `CC(C)c1c(CN[C@H]2CCOC2)cnc2ccc(-c3nc(N[C@@H]4CCOC[C@H]4O)ncc3F)cc12` [Example 32, (3S,4R)-4-((5-fluoro-4-(4-isopropyl-3-((((S)-tetrahydrofuran-3-yl)amino)methyl)quinolin-6-yl)pyrimidin-2-yl)amino)tetrahydro-2H-pyran-3-ol], for which the IC50 on CDK6/Cyclin D3 stood at 484 nM; on CDK4/Cyclin D1, 11 nM.

Turning to `CC(C)c1c(CNC[C@@H]2CCOC2)cnc2ccc(-c3nc(N[C@@H]4CCOC[C@H]4O)ncc3F)cc12` [Example 33, (3S,4R)-4-((5-fluoro-4-(4-isopropyl-3-(((((S)-tetrahydrofuran-3-yl)methyl)amino)methyl)quinolin-6-yl)pyrimidin-2-yl)amino)tetrahydro-2H-pyran-3-ol], the IC50 at CDK6/Cyclin D3 amounted to 792 nM; at CDK4/Cyclin D1 it was 22 nM.

On to `CC(C)c1c(CNC[C@@H]2CCCO2)cnc2ccc(-c3nc(N[C@@H]4CCOC[C@H]4O)ncc3F)cc12` [Example 34, (3S,4R)-4-((5-fluoro-4-(4-isopropyl-3-(((((S)-tetrahydrofuran-2-yl)methyl)amino)methyl)quinolin-6-yl)pyrimidin-2-yl)amino)tetrahydro-2H-pyran-3-ol], for which the IC50 came out at 783 nM on CDK6/Cyclin D3 and 27 nM on CDK4/Cyclin D1.

Turning to `CC(C)c1c(CN[C@@H]2CCOC2)cnc2ccc(-c3nc(N[C@@H]4CCOC[C@H]4O)ncc3F)cc12` [Example 35, (3S,4R)-4-((5-fluoro-4-(4-isopropyl-3-((((R)-tetrahydrofuran-3-yl)amino)methyl)quinolin-6-yl)pyrimidin-2-yl)amino)tetrahydro-2H-pyran-3-ol], the IC50 on CDK6/Cyclin D3 worked out at 592 nM; at CDK4/Cyclin D1, 16 nM.

As to `CC(C)c1c(CN2CCOCC23CC3)cnc2ccc(-c3nc(N[C@@H]4CCOC[C@H]4O)ncc3F)cc12` [Example 36, (3S,4R)-4-((4-(3-((7-oxa-4-azaspiro[2.5]octan-4-yl)methyl)-4-isopropylquinolin-6-yl)-5-fluoropyrimidin-2-yl)amino)tetrahydro-2H-pyran-3-ol], the values for the IC50 at CDK6/Cyclin D3 and on CDK4/Cyclin D1 were 224 nM and 14 nM, respectively.

Regarding `CC(C)c1c(CN[C@H]2CCCOC2)cnc2ccc(-c3nc(N[C@@H]4CCOC[C@H]4O)ncc3F)cc12` [Example 37, (3S,4R)-4-((5-fluoro-4-(4-isopropyl-3-((((S)-tetrahydro-2H-pyran-3-yl)amino)methyl)quinolin-6-yl)pyrimidin-2-yl)amino)tetrahydro-2H-pyran-3-ol], the IC50 on CDK6/Cyclin D3 worked out at 945 nM; at CDK4/Cyclin D1, 27 nM.

Take `CC(C)c1c(CN)cnc2ccc(-c3nc(N[C@@H]4CCOC[C@H]4O)ncc3F)cc12` [Example 38, (3S,4R)-4-((4-(3-(aminomethyl)-4-isopropylquinolin-6-yl)-5-fluoropyrimidin-2-yl)amino)tetrahydro-2H-pyran-3-ol]: the IC50 at CDK6/Cyclin D3 came to 176 nM; on CDK4/Cyclin D1, 4.4 nM.

Turning to `CC(C)c1c(CN[C@H]2CCOC2)cnc2ccc(-c3nc(N[C@@H]4CCOC[C@H]4O)ncc3F)cc12` [Example 39, (3S,4R)-4-((5-fluoro-4-(4-isopropyl-3-((((S)-tetrahydrofuran-3-yl)amino)methyl)quinolin-6-yl)pyrimidin-2-yl)amino)tetrahydro-2H-pyran-3-ol], the IC50 at CDK6/Cyclin D3 came out at 750 nM; at CDK4/Cyclin D1, 25 nM.

With `CC(C)c1c(CN[C@@H]2CCOC2)cnc2ccc(-c3nc(N[C@@H]4CCOC[C@H]4O)ncc3F)cc12` [Example 40, (3S,4R)-4-((5-fluoro-4-(4-isopropyl-3-((((R)-tetrahydrofuran-3-yl)amino)methyl)quinolin-6-yl)pyrimidin-2-yl)amino)tetrahydro-2H-pyran-3-ol], the values for the IC50 at CDK6/Cyclin D3 and on CDK4/Cyclin D1 were 759 nM and 33 nM, respectively.

As to `CC(C)c1c([C@H](C)O)cnc2ccc(-c3nc(N[C@@H]4CCOC[C@H]4O)ncc3F)cc12` [Example 41, (3S,4R)-4-((5-fluoro-4-(3-((S)-1-hydroxyethyl)-4-isopropylquinolin-6-yl)pyrimidin-2-yl)amino)tetrahydro-2H-pyran-3-ol], the results for the IC50 on CDK6/Cyclin D3 and on CDK4/Cyclin D1 were 170 nM and 10 nM, respectively.

Regarding `CC(C)c1c([C@@H](C)O)cnc2ccc(-c3nc(N[C@@H]4CCOC[C@H]4O)ncc3F)cc12` [Example 42, (3S,4R)-4-((5-fluoro-4-(3-((R)-1-hydroxyethyl)-4-isopropylquinolin-6-yl)pyrimidin-2-yl)amino)tetrahydro-2H-pyran-3-ol], the IC50 amounted to 480 nM at CDK6/Cyclin D3 and 32 nM at CDK4/Cyclin D1.

In the case of `CC(C)c1c(CNc2cnn(C)c2)cnc2ccc(-c3nc(N[C@@H]4CCOC[C@H]4O)ncc3F)cc12` [Example 43, (3S,4R)-4-((5-fluoro-4-(4-isopropyl-3-(((1-methyl-1H-pyrazol-4-yl)amino)methyl)quinolin-6-yl)pyrimidin-2-yl)amino)tetrahydro-2H-pyran-3-ol], the IC50 on CDK6/Cyclin D3 is 533 nM; on CDK4/Cyclin D1, 41 nM.

`CC(C)c1c(CN2CCCOCC2)cnc2ccc(-c3nc(N[C@@H]4CCOC[C@H]4O)ncc3F)cc12` [Example 44, (3S,4R)-4-((4-(3-((1,4-oxazepan-4-yl)methyl)-4-isopropylquinolin-6-yl)-5-fluoropyrimidin-2-yl)amino)tetrahydro-2H-pyran-3-ol]: the half-maximal inhibitory concentration (IC50) on CDK6/Cyclin D3 is 475 nM; at CDK4/Cyclin D1 it was 25 nM.

`CC(C)c1c(CNc2ncccn2)cnc2ccc(-c3nc(N[C@@H]4CCOC[C@H]4O)ncc3F)cc12` [Example 45, (3S,4R)-4-((5-fluoro-4-(4-isopropyl-3-((pyrimidin-2-ylamino)methyl)quinolin-6-yl)pyrimidin-2-yl)amino)tetrahydro-2H-pyran-3-ol]: the values for the IC50 on CDK6/Cyclin D3 and at CDK4/Cyclin D1 were 286 nM and 22 nM, respectively.

Take `COc1ccc(NCc2cnc3ccc(-c4nc(N[C@@H]5CCOC[C@H]5O)ncc4F)cc3c2C(C)C)cc1` [Example 46, (3S,4R)-4-((5-fluoro-4-(4-isopropyl-3-(((4-methoxyphenyl)amino)methyl)quinolin-6-yl)pyrimidin-2-yl)amino)tetrahydro-2H-pyran-3-ol]: the half-maximal inhibitory concentration (IC50) on CDK6/Cyclin D3 came to 1040 nM; on CDK4/Cyclin D1, 65 nM.

In the case of `CC(C)c1c([C@H](C)N2CC[C@@H](F)C2)cnc2ccc(-c3nc(N[C@@H]4CCOC[C@H]4O)ncc3F)cc12` [Example 47, (3S,4R)-4-((5-fluoro-4-(3-((S)-1-((R)-3-fluoropyrrolidin-1-yl)ethyl)-4-isopropylquinolin-6-yl)pyrimidin-2-yl)amino)tetrahydro-2H-pyran-3-ol], the values for the IC50 at CDK6/Cyclin D3 and at CDK4/Cyclin D1 were 250 nM and 25 nM, respectively.
